# Source: US20060069132A1, “Azolecarboxamide herbicides” (priority 2004, published 2006)
# Like-named read-outs stand apart in the source and are kept apart here.
# What was measured:
# large crabgrass = experiment: Test C pre-/postemergence herbicide test; type: in vivo, Digitaria sanguinalis; conditions: for pest or weed control at 62 g/ha / pest or weed control at 125 g/ha / pest or weed control at 250 g/ha / pest or weed control at 500 g/ha: Digitaria sanguinalis, pre-emergence, 312 h, read-out: Plant response rating, Crabgrass, Large; for pest or weed control at 125 g/ha: scale 0 (no effect) to 100 (complete control)
# Outline: (§1)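 Visual ratings on a 0–100 scale (100 = complete control) made versus untreated controls after 12 to 14 greenhouse days. Test chemicals, formulated in surfactant-containing non-phytotoxic solvent, applied preemergence to planted seeds or postemergence to 1- to 4-leaf plants (2 to 18 cm).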
# lambsquarters = experiment: Test C pre-/postemergence herbicide test; type: in vivo, Chenopodium album; conditions: for pest or weed control at 62 g/ha / pest or weed control at 125 g/ha / pest or weed control at 250 g/ha / pest or weed control at 500 g/ha: Chenopodium album, pre-emergence, read-out: Plant response rating, Lambsquarters; for pest or weed control at 125 g/ha: scale 0 (no effect) to 100 (complete control)
# Outline: as §1
# pigweed = experiment: Test C pre-/postemergence herbicide test; type: in vivo, Amaranthus retroflexus; conditions: for pest or weed control at 62 g/ha / pest or weed control at 125 g/ha / pest or weed control at 250 g/ha / pest or weed control at 500 g/ha: Amaranthus retroflexus, pre-emergence, read-out: Plant response rating, Pigweed; for pest or weed control at 125 g/ha: scale 0 (no effect) to 100 (complete control)
# Outline: as §1
# common ragweed = experiment: Test C pre-/postemergence herbicide test; type: in vivo, Ambrosia elatior; set-up: key to Plant response rating, Ragweed: 0 = no effect, 100 = complete control; conditions: for pest or weed control at 62 g/ha / pest or weed control at 250 g/ha / pest or weed control at 500 g/ha: Ambrosia artemisiifolia, pre-emergence, read-out: Plant response rating, Ragweed
# Outline: as §1
# [1] = test system: common (oilseed) sunflower; experiment: Test C pre-/postemergence herbicide test; type: in vivo, Helianthus annuus; conditions: for pest or weed control at 62 g/ha / pest or weed control at 250 g/ha / pest or weed control at 500 g/ha: Helianthus annuus, pre-emergence, read-out: Plant response rating, Sunflower; for pest or weed control at 62 g/ha: 62 g ai/ha, scale 0 to 100
# Outline: as §1
# ducksalad = experiment: Test C flooded paddy test; type: in vivo, Heteranthera limosa; conditions: for pest or weed control at 62 g/ha / pest or weed control at 125 g/ha / pest or weed control at 250 g/ha / pest or weed control at 500 g/ha: Heteranthera limosa; for pest or weed control at 500 g/ha: read-out: Plant response rating, Ducksalad
# guineagrass = experiment: Test E pre-/postemergence herbicide test; type: in vivo, Panicum maximum
# Outline: (§2)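 Pre-/postemergence spray, solvent + surfactant vehicle; post timing 1- to 4-leaf stage (2–18 cm). Greenhouse 12–14 d. Visual score 0 (no effect) to 100 (complete control) relative to controls.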
# southern sandbur = experiment: Test E pre-/postemergence herbicide test; type: in vivo, Cenchrus echinatus
# Outline: as §2
# [2] = 62 g ai/ha, preemergence, scale 0 to 100
# [3] = 125 g ai/ha, visual, 12 to 14 days
# [4] = 500 g ai/ha, scale 0 to 100 (0 no effect, 100 complete control), visual, 12 to 14 days
# [5] = 125 g ai/ha, scale 0 to 100 (0 no effect, 100 complete control), read-out: Ducksalad plant response rating
# [6] = 250 g ai/ha, scale of 0 to 100, 0 is no effect, 100 is complete control, read-out: Ducksalad plant response rating
# [7] = 500 g ai/ha, visual rating after 12 to 14 days, scale 0 to 100 (0 no effect, 100 complete control)
# [8] = Postemergence, 250 g ai/ha, scale 0 to 100
# [9] = Preemergence, 62 g ai/ha, scale 0 to 100
# [10] = Preemergence, 125 g ai/ha, scale 0 to 100
# [11] = Preemergence, 250 g ai/ha, scale 0 (no effect) to 100 (complete control)
# [12] = Preemergence, 500 g ai/ha, scale 0 (no effect) to 100 (complete control)
# [13] = postemergence, 125 g ai/ha, scale 0 to 100
# [14] = postemergence, 62 g ai/ha, scale 0 to 100
# [15] = 250 g ai/ha, scale 0-100, preemergence
# [16] = 500 g ai/ha, scale 0 to 100 (0 no effect, 100 complete control), visual, 12 to 14 days, preemergence
structure (smiles),measurement,setting,value
"CCc1nn(C(C)(C)C)cc1C(=O)Nc1cc(C(=O)N(C)C)ccc1F [Compound 222, N-[5-[(dimethylamino)carbonyl]-2-fluorophenyl]-1-(1,1-dimethylethyl)-3-ethyl-1H-pyrazole-4-carboxamide]",pest or weed control at 62 g/ha,large crabgrass; [2],100%
same,pest or weed control at 125 g/ha,large crabgrass; [3],100%
same,pest or weed control at 250 g/ha,"large crabgrass; 250 g ai/ha, scale 0-100",100%
same,pest or weed control at 500 g/ha,large crabgrass; [4],100%
same,pest or weed control at 62 g/ha,lambsquarters; [2],100%
same,pest or weed control at 125 g/ha,lambsquarters; [3],100%
same,pest or weed control at 250 g/ha,"lambsquarters; 250 g ai/ha, scale 0-100",100%
same,pest or weed control at 500 g/ha,lambsquarters; [4],100%
same,pest or weed control at 62 g/ha,pigweed; [2],100%
same,pest or weed control at 125 g/ha,pigweed; [3],100%
same,pest or weed control at 250 g/ha,"pigweed; 250 g ai/ha, scale 0-100",100%
same,pest or weed control at 500 g/ha,pigweed; [4],100%
same,pest or weed control at 62 g/ha,common ragweed; [2],80%
same,pest or weed control at 250 g/ha,"common ragweed; 250 g ai/ha, scale 0-100",100%
same,pest or weed control at 500 g/ha,common ragweed; [4],100%
same,pest or weed control at 62 g/ha,[1]; preemergence,0%
same,pest or weed control at 250 g/ha,"[1]; 250 g ai/ha, scale 0-100",30%
same,pest or weed control at 500 g/ha,[1]; [4],30%
same,pest or weed control at 62 g/ha,"ducksalad; 62 g ai/ha, scale 0 to 100 (0 no effect, 100 complete control), read-out: Ducksalad plant response rating",70%
same,pest or weed control at 125 g/ha,ducksalad; [5],75%
same,pest or weed control at 250 g/ha,ducksalad; [6],85%
same,pest or weed control at 500 g/ha,ducksalad; [7],95%
same,"Plant response rating, Guineagrass",guineagrass; [8],100
same,"Plant response rating, Guineagrass",guineagrass; [9],90
same,"Plant response rating, Guineagrass",guineagrass; [10],95
same,"Plant response rating, Guineagrass",guineagrass; [11],100
same,"Plant response rating, Guineagrass",guineagrass; [12],100
same,"Plant response rating, Guineagrass",guineagrass; [13],70
same,"Plant response rating, Guineagrass",guineagrass; [14],70
same,"Plant response rating, Sandbur","southern sandbur; Postemergence, 500 g ai/ha, scale 0 to 100",80
same,"Plant response rating, Sandbur",southern sandbur; [8],50
same,"Plant response rating, Sandbur",southern sandbur; [9],0
same,"Plant response rating, Sandbur",southern sandbur; [10],40
same,"Plant response rating, Sandbur",southern sandbur; [11],70
same,"Plant response rating, Sandbur",southern sandbur; [12],95
same,"Plant response rating, Sandbur",southern sandbur; [13],10
same,"Plant response rating, Sandbur",southern sandbur; [14],10
"CCN1N=C(C(C)(C)C)CC1C(=O)Nc1cc(C(=O)N(C)C)ccc1F (stereo not shown) [Compound 268, N-[5-[(dimethylamino)carbonyl]-2-fluorophenyl]-3-(1,1-dimethylethyl)-1-ethyl-4,5-dihydro-1H-pyrazole-5-carboxamide]",pest or weed control at 62 g/ha,large crabgrass; [2],90%
same,pest or weed control at 125 g/ha,large crabgrass; [3],95%
same,pest or weed control at 250 g/ha,"large crabgrass; 250 g ai/ha, scale 0-100",100%
same,pest or weed control at 500 g/ha,large crabgrass; [4],100%
same,pest or weed control at 62 g/ha,lambsquarters; [2],100%
same,pest or weed control at 125 g/ha,lambsquarters; [3],100%
same,pest or weed control at 250 g/ha,"lambsquarters; 250 g ai/ha, scale 0-100",100%
same,pest or weed control at 500 g/ha,lambsquarters; [4],100%
same,pest or weed control at 62 g/ha,pigweed; [2],100%
same,pest or weed control at 125 g/ha,pigweed; [3],100%
same,pest or weed control at 250 g/ha,"pigweed; 250 g ai/ha, scale 0-100",100%
same,pest or weed control at 500 g/ha,pigweed; [4],100%
same,pest or weed control at 62 g/ha,common ragweed; [2],70%
same,pest or weed control at 250 g/ha,"common ragweed; 250 g ai/ha, scale 0-100",100%
same,pest or weed control at 500 g/ha,common ragweed; [4],100%
same,pest or weed control at 62 g/ha,[1]; preemergence,0%
same,pest or weed control at 250 g/ha,"[1]; 250 g ai/ha, scale 0-100",60%
same,pest or weed control at 500 g/ha,[1]; [4],90%
same,pest or weed control at 62 g/ha,"ducksalad; 62 g ai/ha, scale 0 to 100, read-out: Ducksalad plant response rating",60%
same,pest or weed control at 125 g/ha,ducksalad; [5],70%
same,pest or weed control at 250 g/ha,ducksalad; [6],85%
same,pest or weed control at 500 g/ha,ducksalad; [7],90%
same,"Plant response rating, Guineagrass",guineagrass; [9],70
same,"Plant response rating, Guineagrass",guineagrass; [10],85
same,"Plant response rating, Guineagrass",guineagrass; [11],100
same,"Plant response rating, Guineagrass",guineagrass; [12],100
same,"Plant response rating, Sandbur",southern sandbur; [9],10
same,"Plant response rating, Sandbur",southern sandbur; [10],70
same,"Plant response rating, Sandbur",southern sandbur; [11],100
same,"Plant response rating, Sandbur",southern sandbur; [12],100
CCc1nn(C(C)C)nc1C(=O)Nc1cccc(C(=O)N(C)CC)c1 [Compound 386],"Plant response rating, Crabgrass, Large",large crabgrass; [2],98
same,"Plant response rating (0 = no effect, 100 = complete control), Crabgrass, Large","large crabgrass; 125 g ai/ha, preemergence",100
same,"Plant response rating, Crabgrass, Large",large crabgrass; [15],100
same,"Plant response rating, Crabgrass, Large",large crabgrass; [16],100
same,"Plant response rating, Lambsquarters",lambsquarters; [2],100
same,"Plant response rating (0 = no effect, 100 = complete control), Lambsquarters","lambsquarters; 125 g ai/ha, preemergence",100
same,"Plant response rating, Lambsquarters",lambsquarters; [15],100
same,"Plant response rating, Lambsquarters",lambsquarters; [16],100
same,"Plant response rating, Pigweed",pigweed; [2],100
same,"Plant response rating (0 = no effect, 100 = complete control), Pigweed","pigweed; 125 g ai/ha, preemergence",100
same,"Plant response rating, Pigweed",pigweed; [15],100
same,"Plant response rating, Pigweed",pigweed; [16],100
same,"Plant response rating, Ragweed",common ragweed; [2],5
same,"Plant response rating (0 = no effect, 100 = complete control), Ragweed","common ragweed; 125 g ai/ha, preemergence",98
same,"Plant response rating, Ragweed",common ragweed; [15],100
same,"Plant response rating, Ragweed",common ragweed; [16],100
same,"Plant response rating (0 = no effect, 100 = complete control), Sunflower","[1]; 125 g ai/ha, preemergence",40
same,"Plant response rating, Sunflower",[1]; [15],85
same,"Plant response rating, Sunflower",[1]; [16],85
same,Ducksalad plant response rating,"ducksalad; 62 g ai/ha, scale 0 to 100",25
same,Ducksalad plant response rating,"ducksalad; 125 g ai/ha, scale 0 to 100 (0 no effect, 100 complete control)",60
same,Ducksalad plant response rating,"ducksalad; 250 g ai/ha, scale of 0 to 100, 0 is no effect, 100 is complete control",85
same,"Plant response rating, Ducksalad",ducksalad; [7],85
same,"Plant response rating, Guineagrass",guineagrass; [10],80
same,"Plant response rating, Guineagrass",guineagrass; [11],100
same,"Plant response rating, Sandbur",southern sandbur; [10],40
same,"Plant response rating, Sandbur",southern sandbur; [11],40
